Results from US20240360126A1, “PYRAZOLO[3,4-B]PYRIDINE COMPOUNDS FOR THE TREATMENT OF AUTOIMMUNE DISEASE” (Hoffmann-La Roche Inc., priority 2021, published 2024).

Target: T1, human TLR8 (Homo sapiens, UniProt Q9NR97)
T1 construct: host or cells: HEK293 (HEK-Blue hTLR8)
T1 sequence (Q9NR97 27-1041): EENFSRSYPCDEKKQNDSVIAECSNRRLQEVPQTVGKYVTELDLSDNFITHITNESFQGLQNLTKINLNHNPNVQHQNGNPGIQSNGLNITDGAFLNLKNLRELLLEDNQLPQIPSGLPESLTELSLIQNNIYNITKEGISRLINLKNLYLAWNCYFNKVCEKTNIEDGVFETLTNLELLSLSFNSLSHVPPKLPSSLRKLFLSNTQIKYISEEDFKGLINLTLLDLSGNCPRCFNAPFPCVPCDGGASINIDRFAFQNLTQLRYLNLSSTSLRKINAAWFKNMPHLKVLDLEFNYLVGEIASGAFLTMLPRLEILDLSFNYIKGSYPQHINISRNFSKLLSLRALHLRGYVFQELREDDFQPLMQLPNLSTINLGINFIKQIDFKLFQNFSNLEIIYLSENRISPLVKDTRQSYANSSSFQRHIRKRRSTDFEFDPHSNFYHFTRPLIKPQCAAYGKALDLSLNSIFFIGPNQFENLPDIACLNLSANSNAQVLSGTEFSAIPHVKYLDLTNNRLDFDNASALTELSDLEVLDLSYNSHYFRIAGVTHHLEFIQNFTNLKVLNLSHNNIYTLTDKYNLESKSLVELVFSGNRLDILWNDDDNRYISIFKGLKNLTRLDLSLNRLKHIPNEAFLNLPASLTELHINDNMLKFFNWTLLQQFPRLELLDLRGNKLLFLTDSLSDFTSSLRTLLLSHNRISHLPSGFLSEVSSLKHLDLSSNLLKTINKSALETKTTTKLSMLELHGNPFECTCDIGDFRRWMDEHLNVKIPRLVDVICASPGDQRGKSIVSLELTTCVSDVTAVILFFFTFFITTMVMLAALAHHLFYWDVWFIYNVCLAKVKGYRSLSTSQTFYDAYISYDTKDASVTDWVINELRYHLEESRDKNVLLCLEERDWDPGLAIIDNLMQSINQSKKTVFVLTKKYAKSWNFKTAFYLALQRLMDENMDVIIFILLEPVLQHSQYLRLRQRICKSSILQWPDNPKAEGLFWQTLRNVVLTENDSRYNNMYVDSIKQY
Assay: HEK293-Blue-hTLR-8 cells assay
Assay type: cell-based
Details: HEK293-Blue-hTLR8 cells, R848 stimulation, 20 hrs; read-out: HEK/hTLR8 IC50
Excerpt: A stable HEK293-Blue-hTLR-8 cell line was purchased from InvivoGen (Cat. #: hkb-htlr8, San Diego, California, USA). These cells were originally designed for studying the stimulation of human TLR8 by monitoring the activation of NF-κB. A SEAP (secreted embryonic alkaline phosphatase) reporter gene was placed under the control of the IFN-β minimal promoter fused to five NF-κB and AP-1-binding sites. The SEAP was induced by activating NF-κB and AP-1 via stimulating HEK-Blue hTLR8 cells with TLR8 ligands. Therefore the reporter expression was declined by TLR8 antagonist under the stimulation of a ligand, such as R848, for incubation of 20 hrs. The cell culture supernatant SEAP reporter activity was determined using QUANTT-BlueTv™ kit (Cat. #: rep-qbl, Invivogen, San Diego, Ca, USA) at a wavelength of 640 nm, a detection medium that turns purple or blue in the presence of alkaline phosphatase.
HEK293-Blue-hTLR8 cells were incubated at a density of 250,000˜450,000 cells/mL in a volume of 170 μL in a 96-well plate in Dulbecco's Modified Eagle's medium (DMEM) containing 4.5 g/L glucose, 50 U/mi penicillin, […] streptomycin, […], 2 mM L-glutamine, 10% (v/v) heat-inactivated fetal bovine serum with addition of 20 μL test compound in a serial dilution in the presence of final DMSO at 1% and 10 μL of 60 μM R848 in above DMEM, perform incubation under 37° C. in a CO2 incubator for 20 hrs. Then 20 μL of the supernatant from each well was incubated with 180 μL Quanti-blue substrate solution at 37° C. for 2 hrs and the absorbance was read at 620-655 nm using a spectrophotometer. The signaling pathway that TLR8 activation leads to downstream NF-κB activation has been widely accepted, and therefore similar reporter assay was modified for evaluating TLR8 antagonist.

| IC50 | Compound |
| --- | --- |
| 7 nM | Cc1cc(N2CCC(c3ncc(N4CCNCC4)cc3C)[C@H](C)C2)c2cnn(C)c2n1 (single isomer, unassigned) [Example 25, 1,6-dimethyl-4-[trans-3-methyl-4-(3-methyl-5-piperazin-1-yl-2-pyridyl)-1-piperidyl]pyrazolo[3,4-b]pyridine] |
| 21 nM | Cc1cc(N2CCC(c3ccc(N4CCNCC4)cn3)CC2)c2cnn(C)c2n1 [Example 2, 1,6-dimethyl-4-[4-(5-piperazin-1-yl-2-pyridyl)-1-piperidyl]pyrazolo[3,4-b]pyridine] |
| 50 nM | Cc1cc(N2CCC(c3cnc(N4CCNCC4)cn3)CC2)c2cnn(C)c2n1 [Example 3, 1,6-dimethyl-4-[4-(5-piperazin-1-ylpyrazin-2-yl)-1-piperidyl]pyrazolo[3,4-b]pyridine] |
| 59 nM | Cc1cc(N2CCC(c3ncc(N4CCNCC4)cn3)CC2)c2cnn(C)c2n1 [Example 4, 1,6-dimethyl-4-[4-(5-piperazin-1-ylpyrimidin-2-yl)-1-piperidyl]pyrazolo[3,4-b]pyridine] |
| 64 nM | Cc1cc(N2CCNCC2)cnc1C1CCN(c2ccnc3c2cnn3C)CC1 [Example 5, 1-methyl-4-[4-(3-methyl-5-piperazin-1-yl-2-pyridyl)-1-piperidyl]pyrazolo[3,4-b]pyridine] |
| 29 nM | Cc1cc(N2CCC(c3ncc(N4CCNCC4)cc3C)CC2)c2cnn(C)c2n1 [Example 7, 1,6-dimethyl-4-[4-(3-methyl-5-piperazin-1-yl-2-pyridyl)-1-piperidyl]pyrazolo[3,4-b]pyridine] |
| 8 nM | Cc1cc(N2CCC(c3cnc(N4CCNCC4)cc3C)CC2)c2cnn(C)c2n1 [Example 8, 1,6-dimethyl-4-[4-(4-methyl-6-piperazin-1-yl-3-pyridyl)-1-piperidyl]pyrazolo[3,4-b]pyridine] |
| 31 nM | Cc1cc(N2CCC(c3cc(C)c(N4CCNCC4)cn3)CC2)c2cnn(C)c2n1 [Example 9, 1,6-dimethyl-4-[4-(4-methyl-5-piperazin-1-yl-2-pyridyl)-1-piperidyl]pyrazolo[3,4-b]pyridine] |
| 42 nM | Cc1cc(N2CCC(c3cnc(N4CCNCC4)nc3C)CC2)c2cnn(C)c2n1 [Example 11, 1,6-dimethyl-4-[4-(4-methyl-2-piperazin-1-yl-pyrimidin-5-yl)-1-piperidyl]pyrazolo[3,4-b]pyridine] |
| 44 nM | CCc1cc(N2CCNCC2)cnc1C1CCN(c2cc(C)nc3c2cnn3C)CC1 [Example 13, 4-[4-(3-ethyl-5-piperazin-1-yl-2-pyridyl)-1-piperidyl]-1,6-dimethyl-pyrazolo[3,4-b]pyridine] |
| 13 nM | COc1cc(N2CCNCC2)cnc1C1CCN(c2cc(C)nc3c2cnn3C)CC1 [Example 14, 4-[4-(3-methoxy-5-piperazin-1-yl-2-pyridyl)-1-piperidyl]-1,6-dimethyl-pyrazolo[3,4-b]pyridine] |

Continued, compound first:

| Compound | IC50 |
| --- | --- |
| Cc1cc(N2CCC(c3cnc(N4CCNCC4)cc3C)[C@H](C)C2)c2cnn(C)c2n1 (single isomer, unassigned) [Example 20, 1,6-dimethyl-4-[cis-3-methyl-4-(4-methyl-6-piperazin-1-yl-3-pyridyl)-1-piperidyl]pyrazolo[3,4-b]pyridine] | 6 nM |
| Cc1cc(N2CCC(c3cnc(N4CCNCC4)cc3C)[C@H](C)C2)c2cnn(C)c2n1 (single isomer, unassigned) [Example 21, 1,6-dimethyl-4-[trans-3-methyl-4-(4-methyl-6-piperazin-1-yl-3-pyridyl)-1-piperidyl]pyrazolo[3,4-b]pyridine] | 3 nM |
| Cc1cc(N2CCC(c3ncc(N4CCNCC4)nc3C)[C@H](C)C2)c2cnn(C)c2n1 (single isomer, unassigned) [Example 22, 1,6-dimethyl-4-[cis-3-methyl-4-(3-methyl-5-piperazin-1-yl-pyrazin-2-yl)-1-piperidyl]pyrazolo[3,4-b]pyridine] | 6 nM |
| Cc1cc(N2CCC(c3ncc(N4CCNCC4)nc3C)[C@H](C)C2)c2cnn(C)c2n1 (single isomer, unassigned) [Example 23, 1,6-dimethyl-4-[trans-3-methyl-4-(3-methyl-5-piperazin-1-yl-pyrazin-2-yl)-1-piperidyl]pyrazolo[3,4-b]pyridine] | 7 nM |
| Cc1cc(N2CCC(c3ncc(N4CCNCC4)cc3C)[C@H](C)C2)c2cnn(C)c2n1 (single isomer, unassigned) [Example 24, 1,6-dimethyl-4-[cis-3-methyl-4-(3-methyl-5-piperazin-1-yl-2-pyridyl)-1-piperidyl]pyrazolo[3,4-b]pyridine] | 5 nM |
| Cc1cc(N2CCC(c3ccc(N4CCNCC4)cc3)CC2)c2cnn(C)c2n1 [Example 1, 1,6-dimethyl-4-[4-(4-piperazin-1-ylphenyl)-1-piperidyl]pyrazolo[3,4-b]pyridine] | 12 nM |
| Cc1cc(N2CCNCC2)ncc1C1CCN(c2ccnc3c2cnn3C)CC1 [Example 6, 1-methyl-4-[4-(4-methyl-6-piperazin-1-yl-3-pyridyl)-1-piperidyl]pyrazolo[3,4-b]pyridine] | 37 nM |
| Cc1cc(N2CCC(c3ccc(N4CCNCC4)nc3C)CC2)c2cnn(C)c2n1 [Example 10, 1,6-dimethyl-4-[4-(2-methyl-6-piperazin-1-yl-3-pyridyl)-1-piperidyl]pyrazolo[3,4-b]pyridine] | 13 nM |
| Cc1cc(N2CCC(c3ncc(N4CC[C@@H](N)[C@@H](F)C4)cc3C)CC2)c2cnn(C)c2n1 [Example 15, (3S,4R)-1-[6-[1-(1,6-dimethylpyrazolo[3,4-b]pyridin-4-yl)-4-piperidyl]-5-methyl-3-pyridyl]-3-fluoro-piperidin-4-amine] | 47 nM |
| COC[C@H]1CN(c2cnc(C3CCN(c4cc(C)nc5c4cnn5C)CC3)c(C)c2)CCN1 [Example 16, 4-[4-[5-[(3R)-3-(methoxymethyl)piperazin-1-yl]-3-methyl-2-pyridyl]-1-piperidyl]-1,6-dimethyl-pyrazolo[3,4-b]pyridine] | 32 nM |
| CO[C@H]1CN(c2cnc(C3CCN(c4cc(C)nc5c4cnn5C)CC3)c(C)c2)CC[C@@H]1N [Example 17, (3S,4S)-1-[6-[1-(1,6-dimethylpyrazolo[3,4-b]pyridin-4-yl)-4-piperidyl]-5-methyl-3-pyridyl]-3-methoxy-piperidin-4-amine] | 39 nM |
| CO[C@@H]1CN(c2cnc([C@@H]3CCN(c4cc(C)nc5c4cnn5C)C[C@H]3C)c(C)c2)C[C@H]1N [Example 26, (3R,4R)-1-[6-[(3S,4R)-1-(1,6-dimethylpyrazolo[3,4-b]pyridin-4-yl)-3-methyl-4-piperidyl]-5-methyl-3-pyridyl]-4-methoxy-pyrrolidin-3-amine] | 14 nM |
| Cc1cc(N2CC[C@@H](c3ncc(N4CC5(CNCCO5)C4)cc3C)[C@H](C)C2)c2cnn(C)c2n1 [Example 27, 2-[6-[(3S,4R)-1-(1,6-dimethylpyrazolo[3,4-b]pyridin-4-yl)-3-methyl-4-piperidyl]-5-methyl-3-pyridyl]-5-oxa-2,8-diazaspiro[3.5]nonane] | 7 nM |
| Cc1cc(N2CC[C@@H](c3ncc(N4CCOC[C@@H](N)C4)cc3C)[C@H](C)C2)c2cnn(C)c2n1 [Example 28, (6S)-4-[6-[(3S,4R)-1-(1,6-dimethylpyrazolo[3,4-b]pyridin-4-yl)-3-methyl-4-piperidyl]-5-methyl-3-pyridyl]-1,4-oxazepan-6-amine] | 2 nM |
